Like-named read-outs stand apart in the source and are kept apart here.
Tests used:
M-NFS-60 cells = test: M-NFS-60 cell proliferation assay (resazurin); type: cell-based; conditions: 67 h incubation
Outline: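 Cells kept in medium containing 20 ng/mL mouse recombinant M-CSF. Fluorescence was read at ex 540/em 600 nm, and IC50 was fitted from percent inhibition across a range of inhibitor concentrations.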

[1] = target: c-FMS kinase in THP-1 cells (Homo sapiens (Human), UniProt P07333); test: Phospho-FMS ELISA assay in THP-1 cells; type: cell-based
Procedure: THP-1 cells (catalog #TIB-202) were obtained from the ATCC. Briefly, cells were grown in RPMI 1640 supplemented with 10% characterized fetal bovine serum, 1% sodium pyruvate, 1% Penicillin-Streptomycin-Glutamine (PSG) and 55 uM 2-mercaptoethanol (Invitrogen, Carlsbad, Calif.) at 37 degrees Celsius, 5% CO2, 95% humidity. Cells were allowed to expand until reaching 70-95% confluency at which point they were subcultured or harvested for assay use.
A serial dilution of test compound was diluted 1:100 in assay medium (RPMI 1640 supplemented with 10% characterized fetal bovine serum) in a 96 well black clear bottom plate (Corning, Corning, N.Y.). In a separate 96 well black clear bottom plate, one hundred and fifty thousand THP-1 cells were added per well in 100 μL in assay medium. Fifty microliters of diluted compound was then added to the cells. Plates were incubated for 4 hours at 37 degrees Celsius, 5% CO2, 95% humidity. At the end of the incubation period, cells were stimulated with 50 μL of a 100 nM solution of recombinant human M-CSF (catalog #216-MC, R & D Systems, Minneapolis, Minn.) in assay medium and the plate was incubated for 5 minutes at 37 degrees Celsius, 5% CO2, 95% humidity. Lysates were prepared and used to perform the phospho-FMS ELISA as described by the manufacturer (catalog #DYC3268, R & D Systems, Minneapolis, Minn.). GraphPad Prism was used to calculate IC50 values obtained from data generated from the ELISA assay.

[2] = target: unphosphorylated c-FMS kinase (uFMS, Seq. ID no. 1) (Homo sapiens (Human), UniProt P07333); test: uFMS kinase assay (ADP production coupled to pyruvate kinase/lactate dehydrogenase); type: biochemical
Outline: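 Unphosphorylated FMS (10 nM) with polyE4Y 1 mg/mL and 500 μM ATP in 90 mM Tris pH 7.5, 10 mM MgCl2, 0.2% octyl-glucoside, 1% DMSO. ADP formation was coupled via pyruvate kinase/LDH to NADH oxidation, followed at A340 for 4 h at 30° C.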

osteoclast precursors = test: Osteoclast tartrate-resistant acid phosphatase assay; type: cell-based; conditions: Osteoclast, 7-14 days, RANKL and M-CSF
[3] = target: unphosphorylated PDGFRβ kinase (uPDGFRβ, Seq. ID No. 3) (Homo sapiens (Human), UniProt P09619); test: Unphosphorylated PDGFRβ kinase assay (coupled pyruvate kinase/lactate dehydrogenase); type: biochemical; conditions: enzymatic assay, ATP 500 μM
Outline: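 Construct residues 557-1106, unphosphorylated, 15.7 nM, with poly E4Y 2.5 mg/mL and 500 μM ATP, Tris pH 7.5, 1% DMSO, 30 °C. ADP coupled to NADH oxidation via PK/LDH, A340 followed 4 h; rate from 1.5-2.5 h versus no-compound control, IC50 from percent-inhibition series.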

KDR kinase = KDR kinase (Homo sapiens (Human), UniProt P35968); test: KDR kinase inhibition (Table 4); type: biochemical
cMET kinase = cMET kinase (Homo sapiens (Human), UniProt P08581); test: cMET kinase inhibition (Table 4); type: biochemical
[4] = target: unphosphorylated c-KIT kinase (uKIT, Seq. ID no. 2) (Homo sapiens (Human), UniProt P10721); test: uKit kinase assay (coupled pyruvate kinase/lactate dehydrogenase); type: biochemical; conditions: enzymatic assay, ATP 2000 μM
Outline: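 The read-out was a continuous PK/LDH-coupled decrease in NADH absorbance at 340 nm, monitored at 30 °C over 4 h. IC50 came from % inhibition based on rates at 3–4 h. The GST-tagged unphosphorylated KIT (12 nM) was used with polyE4Y substrate, 2000 μM ATP and 10 mM Mg2+ at pH 7.5, with serially diluted compound.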

[5] = 4 h compound, M-CSF stimulation 5 min, read-out: pFMS inhibition in THP-1 cells
[6] = enzymatic assay, ATP 500 μM, read-out: uFMS
[7] = uFMS, enzymatic assay, ATP 500 μM

unphosphorylated c-FMS kinase (uFMS, Seq. ID no. 1), sequence (P07333 538-972): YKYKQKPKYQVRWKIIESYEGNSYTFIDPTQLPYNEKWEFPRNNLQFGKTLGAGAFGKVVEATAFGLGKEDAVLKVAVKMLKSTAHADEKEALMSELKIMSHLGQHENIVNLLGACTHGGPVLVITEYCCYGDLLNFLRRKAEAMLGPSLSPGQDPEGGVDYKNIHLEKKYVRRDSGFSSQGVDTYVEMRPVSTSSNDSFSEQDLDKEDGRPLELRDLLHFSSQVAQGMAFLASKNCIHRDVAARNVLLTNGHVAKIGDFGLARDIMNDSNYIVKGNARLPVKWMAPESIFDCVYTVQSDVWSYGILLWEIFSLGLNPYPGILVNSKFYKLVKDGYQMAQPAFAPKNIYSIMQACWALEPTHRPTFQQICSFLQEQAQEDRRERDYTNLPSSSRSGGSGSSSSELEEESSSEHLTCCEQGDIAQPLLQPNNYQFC
cMET kinase, sequence (P08581 25-1390): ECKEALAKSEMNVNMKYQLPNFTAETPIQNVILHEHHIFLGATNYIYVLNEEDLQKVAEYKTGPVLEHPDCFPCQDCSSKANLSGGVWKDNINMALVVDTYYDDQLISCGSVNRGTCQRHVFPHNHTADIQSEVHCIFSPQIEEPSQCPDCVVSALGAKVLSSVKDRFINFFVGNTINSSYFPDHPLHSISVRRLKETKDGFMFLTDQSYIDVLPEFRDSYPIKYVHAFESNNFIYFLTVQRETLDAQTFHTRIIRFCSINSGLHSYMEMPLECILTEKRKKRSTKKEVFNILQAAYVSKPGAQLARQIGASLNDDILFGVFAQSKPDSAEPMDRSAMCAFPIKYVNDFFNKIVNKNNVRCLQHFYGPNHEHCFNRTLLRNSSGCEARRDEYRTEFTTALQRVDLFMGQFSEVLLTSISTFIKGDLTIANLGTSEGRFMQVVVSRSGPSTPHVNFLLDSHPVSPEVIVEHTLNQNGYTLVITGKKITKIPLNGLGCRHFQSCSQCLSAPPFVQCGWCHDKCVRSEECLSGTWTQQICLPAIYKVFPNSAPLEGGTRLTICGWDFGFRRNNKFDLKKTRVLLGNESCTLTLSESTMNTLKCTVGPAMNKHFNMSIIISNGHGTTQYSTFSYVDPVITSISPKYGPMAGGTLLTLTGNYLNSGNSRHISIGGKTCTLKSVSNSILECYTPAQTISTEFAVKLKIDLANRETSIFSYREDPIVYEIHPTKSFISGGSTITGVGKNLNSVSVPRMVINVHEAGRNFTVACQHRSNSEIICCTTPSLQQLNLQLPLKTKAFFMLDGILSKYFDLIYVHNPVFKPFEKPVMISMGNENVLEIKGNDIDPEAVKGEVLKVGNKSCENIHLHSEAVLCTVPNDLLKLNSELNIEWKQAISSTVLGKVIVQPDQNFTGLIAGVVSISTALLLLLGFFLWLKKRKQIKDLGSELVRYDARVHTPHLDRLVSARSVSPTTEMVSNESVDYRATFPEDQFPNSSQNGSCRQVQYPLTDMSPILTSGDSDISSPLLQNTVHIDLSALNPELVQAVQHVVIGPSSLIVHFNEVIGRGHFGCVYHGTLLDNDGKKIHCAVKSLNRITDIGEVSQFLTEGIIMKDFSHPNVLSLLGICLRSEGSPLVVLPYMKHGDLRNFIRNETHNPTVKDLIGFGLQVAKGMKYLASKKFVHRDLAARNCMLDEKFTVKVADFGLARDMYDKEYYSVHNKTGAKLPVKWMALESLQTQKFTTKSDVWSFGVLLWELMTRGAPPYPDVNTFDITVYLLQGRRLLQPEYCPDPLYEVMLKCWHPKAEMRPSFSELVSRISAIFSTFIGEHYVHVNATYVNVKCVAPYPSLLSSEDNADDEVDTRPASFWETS
unphosphorylated c-KIT kinase (uKIT, Seq. ID no. 2), sequence (P10721 other isoform, or with tags, fused parts or gaps): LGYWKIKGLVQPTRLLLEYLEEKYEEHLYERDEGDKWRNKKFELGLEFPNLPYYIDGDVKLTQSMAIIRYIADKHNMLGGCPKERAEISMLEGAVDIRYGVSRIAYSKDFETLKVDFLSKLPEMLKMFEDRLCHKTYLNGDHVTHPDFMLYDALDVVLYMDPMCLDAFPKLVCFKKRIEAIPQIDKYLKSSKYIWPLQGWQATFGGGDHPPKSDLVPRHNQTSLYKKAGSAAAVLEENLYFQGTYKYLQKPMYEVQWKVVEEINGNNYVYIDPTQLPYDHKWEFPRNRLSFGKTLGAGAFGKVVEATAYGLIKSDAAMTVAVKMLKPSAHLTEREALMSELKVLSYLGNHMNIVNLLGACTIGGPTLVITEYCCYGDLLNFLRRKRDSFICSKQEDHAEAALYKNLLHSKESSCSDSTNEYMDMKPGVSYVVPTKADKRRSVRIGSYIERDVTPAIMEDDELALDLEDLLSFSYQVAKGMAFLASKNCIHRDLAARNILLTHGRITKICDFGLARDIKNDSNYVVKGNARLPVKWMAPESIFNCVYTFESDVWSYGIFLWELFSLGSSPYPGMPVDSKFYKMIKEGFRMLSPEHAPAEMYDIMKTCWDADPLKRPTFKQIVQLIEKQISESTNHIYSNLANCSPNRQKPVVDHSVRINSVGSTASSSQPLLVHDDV
unphosphorylated PDGFRβ kinase (uPDGFRβ, Seq. ID No. 3), sequence (P09619 557-1106): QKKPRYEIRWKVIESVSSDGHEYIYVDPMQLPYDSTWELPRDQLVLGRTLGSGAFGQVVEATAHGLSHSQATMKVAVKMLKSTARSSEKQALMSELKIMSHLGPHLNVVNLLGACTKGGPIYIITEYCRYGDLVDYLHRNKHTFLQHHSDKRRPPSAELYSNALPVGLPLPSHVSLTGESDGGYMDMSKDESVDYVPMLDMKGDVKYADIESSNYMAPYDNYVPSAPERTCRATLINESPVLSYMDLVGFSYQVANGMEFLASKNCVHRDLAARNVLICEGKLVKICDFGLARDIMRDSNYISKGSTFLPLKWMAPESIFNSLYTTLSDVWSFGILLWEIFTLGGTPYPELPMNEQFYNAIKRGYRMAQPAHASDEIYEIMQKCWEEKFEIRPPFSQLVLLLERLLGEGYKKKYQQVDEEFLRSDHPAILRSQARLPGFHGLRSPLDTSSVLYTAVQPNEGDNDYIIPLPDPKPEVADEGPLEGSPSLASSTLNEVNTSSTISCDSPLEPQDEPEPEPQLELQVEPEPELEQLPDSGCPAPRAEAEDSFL
KDR kinase, sequence (P35968 20-1356): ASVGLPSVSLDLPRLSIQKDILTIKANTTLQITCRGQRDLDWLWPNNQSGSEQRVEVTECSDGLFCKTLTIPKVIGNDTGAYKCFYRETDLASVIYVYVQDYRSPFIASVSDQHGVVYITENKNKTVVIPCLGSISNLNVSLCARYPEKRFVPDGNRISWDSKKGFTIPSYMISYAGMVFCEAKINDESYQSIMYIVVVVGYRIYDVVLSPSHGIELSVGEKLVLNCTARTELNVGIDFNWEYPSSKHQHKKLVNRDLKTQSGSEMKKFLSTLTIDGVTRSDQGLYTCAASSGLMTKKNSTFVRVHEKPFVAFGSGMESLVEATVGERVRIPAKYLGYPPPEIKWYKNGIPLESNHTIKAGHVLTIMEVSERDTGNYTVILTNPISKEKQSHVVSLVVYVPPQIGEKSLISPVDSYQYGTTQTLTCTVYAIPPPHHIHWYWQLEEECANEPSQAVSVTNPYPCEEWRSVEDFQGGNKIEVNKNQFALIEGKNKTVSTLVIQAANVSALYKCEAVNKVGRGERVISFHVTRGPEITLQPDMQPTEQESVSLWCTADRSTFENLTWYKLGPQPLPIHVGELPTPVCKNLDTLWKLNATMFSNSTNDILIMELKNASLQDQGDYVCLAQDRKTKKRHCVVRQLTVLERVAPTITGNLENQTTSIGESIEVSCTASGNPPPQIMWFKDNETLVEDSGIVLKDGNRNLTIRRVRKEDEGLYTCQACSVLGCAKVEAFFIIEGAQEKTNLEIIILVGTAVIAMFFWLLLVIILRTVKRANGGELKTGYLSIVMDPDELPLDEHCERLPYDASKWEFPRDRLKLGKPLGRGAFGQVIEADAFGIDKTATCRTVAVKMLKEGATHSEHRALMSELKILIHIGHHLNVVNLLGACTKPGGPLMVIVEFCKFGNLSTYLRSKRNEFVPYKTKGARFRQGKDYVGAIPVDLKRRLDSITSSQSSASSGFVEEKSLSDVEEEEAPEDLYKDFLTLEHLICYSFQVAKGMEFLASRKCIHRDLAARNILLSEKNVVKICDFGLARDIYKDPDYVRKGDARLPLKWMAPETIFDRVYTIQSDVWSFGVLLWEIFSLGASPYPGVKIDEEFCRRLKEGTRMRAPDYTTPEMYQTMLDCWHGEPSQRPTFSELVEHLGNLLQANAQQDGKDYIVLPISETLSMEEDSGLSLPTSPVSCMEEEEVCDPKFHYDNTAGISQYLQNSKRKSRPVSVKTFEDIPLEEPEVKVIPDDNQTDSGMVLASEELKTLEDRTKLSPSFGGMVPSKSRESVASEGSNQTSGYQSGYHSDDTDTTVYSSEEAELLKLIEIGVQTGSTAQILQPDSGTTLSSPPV

Row | IC50 [1, 5] [nM] | Compound | IC50 (M-NFS-60 cells) [nM] | IC50 [2, 6] [nM] | IC50 (osteoclast precursors) [nM] | IC50 [3] [nM] | IC50 (KDR kinase) [µM] | IC50 ([2]; Table 4, read-out: c-FMS IC50) [nM] | IC50 (cMET kinase) [µM] | IC50 [4] [nM] | IC50 [1] [nM] | IC50 [2, 7] [nM]
1 | 100 to 1000 | Cc1cc(-c2cc(Oc3ccc(NC(=O)N4CCN(C5CCOCC5)C4=O)nc3C)ccn2)on1 [Example 14, N-(6-methyl-5-((2-(3-methylisoxazol-5-yl)pyridin-4-yl)oxy)pyridin-2-yl)-2-oxo-3-(tetrahydro-2H-pyran-4-yl)imidazolidine-1-carboxamide] | 100 to 1000 | 10 to 100 | 10 to 100 | > 1000 |  |  |  |  |  | 
2 |  | CNC(=O)c1cc(Oc2ccc(NC(=O)N3CCN(C(C)(C)C)C3=O)nc2)ccn1 [Example 90, 4-((6-(3-(tert-butyl)-2-oxoimidazolidine-1-carboxamido)pyridin-3-yl)oxy)-N-methylpicolinamide] | 10 to 100 | < 10 | 10 to 100 | 10 to 100 | 3.3 | 5 | > 5 | 10 to 100 |  | 
3 | 10 to 100 | Cn1cc(-c2cc(Oc3cc(F)c(NC(=O)N4CCN(C5CCOCC5)C4=O)cc3Cl)ccn2)cn1 [Example 92, N-(5-chloro-2-fluoro-4-((2-(1-methyl-1H-pyrazol-4-yl)pyridin-4-yl)oxy)phenyl)-2-oxo-3-(tetrahydro-2H-pyran-4-yl)imidazolidine-1-carboxamide] | 10 to 100 | < 10 | 10 to 100 |  |  |  |  | 10 to 100 |  | 
4 |  | [2H]C([2H])([2H])n1cc(-c2cc(Oc3ccc(NC(=O)N4CCN([C@@H]5CCOC5)C4=O)nc3C)ccn2)cn1 [Example 37, (R)—N-(6-methyl-5-((2-(1-(trideuteromethyl)-1H-pyrazol-4-yl)pyridin-4-yl)oxy)pyridin-2-yl)-2-oxo-3-(tetrahydrofuran-3-yl)imidazolidine-1-carboxamide] | 10 to 100 |  | 10 to 100 | > 1000 |  |  |  | 100 to 1000 | 10 to 100 | 10 to 100
5 |  | O=C(Nc1ccc(Oc2ccnc(-c3cn[nH]c3)c2)cn1)N1CCN(C2CCOCC2)C1=O [Example 5, N-(5-((2-(1H-pyrazol-4-yl)pyridin-4-yl)oxy)pyridin-2-yl)-2-oxo-3-(tetrahydro-2H-pyran-4-yl)imidazolidine-1-carboxamide] | 10 to 100 |  | 10 to 100 | 100 to 1000 |  |  |  |  | 100 to 1000 | 10 to 100
6 |  | Cc1nc(NC(=O)N2CCN(C3CCOC3)C2=O)ccc1Oc1ccnc(-c2cnn(C)c2)c1 (stereo in doubt) [Example 23, (S)—N-(6-methyl-5-((2-(1-methyl-1H-pyrazol-4-yl)pyridin-4-yl)oxy)pyridin-2-yl)-2-oxo-3-(tetrahydrofuran-3-yl)imidazolidine-1-carboxamide] | 10 to 100 |  | 10 to 100 | > 1000 |  |  |  | > 1000 | 10 to 100 | 10 to 100
7 | 10 to 100 | Cn1cc(-c2cc(Oc3ccc(NC(=O)N4CCN(C5CCOCC5)C4=O)cc3Cl)ccn2)cn1 [Example 96, N-(3-chloro-4-((2-(1-methyl-1H-pyrazol-4-yl)pyridin-4-yl)oxy)phenyl)-2-oxo-3-(tetrahydro-2H-pyran-4-yl)imidazolidine-1-carboxamide] | > 1000 | 10 to 100 | 100 to 1000 |  |  |  |  |  |  | 
8 | 10 to 100 | Cn1cc(-c2cc(Oc3ccc(NC(=O)N4CCN(C5CCOCC5)C4=O)nc3)ncn2)cn1 [Example 8, N-(5-((6-(1-methyl-1H-pyrazol-4-yl)pyrimidin-4-yl)oxy)pyridin-2-yl)-2-oxo-3-(tetrahydro-2H-pyran-4-yl)imidazolidine-1-carboxamide] | 100 to 1000 | 10 to 100 | 10 to 100 |  |  |  |  |  |  | 

Row | Compound | IC50 [1, 5] [nM] | IC50 (M-NFS-60 cells) [nM] | IC50 [2, 6] [nM] | IC50 (osteoclast precursors) [nM] | IC50 [3] [nM] | IC50 (KDR kinase) [µM] | IC50 ([2]; Table 4, read-out: c-FMS IC50) [nM] | IC50 (cMET kinase) [µM] | IC50 [4] [nM] | IC50 [1] [nM] | IC50 [2, 7] [nM]
9 | CN(C)C(=O)Nc1cc(Oc2cc(F)c(NC(=O)N3CCN(C4CCOCC4)C3=O)cc2Cl)ccn1 [Example 101, N-(5-chloro-4-((2-(3,3-dimethylureido)pyridin-4-yl)oxy)-2-fluorophenyl)-2-oxo-3-(tetrahydro-2H-pyran-4-yl)imidazolidine-1-carboxamide] | 10 to 100 | 10 to 100 | < 10 | < 10 | 100 to 1000 | > 3.3 | 8 | 4 |  |  | 
10 | Cn1cc(-c2cc(Oc3ccc(NC(=O)N4CCN(C5CCCCC5)C4=O)nc3)ccn2)cn1 [Example 15, 3-cyclohexyl-N-(5-((2-(1-methyl-1H-pyrazol-4-yl)pyridin-4-yl)oxy)pyridin-2-yl)-2-oxoimidazolidine-1-carboxamide] | 10 to 100 | < 10 | < 10 | < 10 | 10 to 100 | 0.67 | 3 | 0.37 |  |  | 
11 | Cn1cc(-c2cc(Oc3cc(F)c(NC(=O)N4CCN(C5CCOCC5)C4=O)cc3F)ccn2)cn1 [Example 91, N-(2,5-difluoro-4-((2-(1-methyl-1H-pyrazol-4-yl)pyridin-4-yl)oxy)phenyl)-2-oxo-3-(tetrahydro-2H-pyran-4-yl)imidazolidine-1-carboxamide] | 10 to 100 | 10 to 100 | < 10 | 10 to 100 |  | > 3.3 | 7 | > 5 | 100 to 1000 |  | 
